Drawing on a melting point compilation (Tetko et al.; mined from patent text by program, amines drawn as free bases though some values may be those of a salt), this text covers melting point for 88 molecules.

Usually melting point stands for the temperature of the solid-liquid transition. `O=S(=O)(Cc1ccccc1)c1nc2ccc(O)cc2s1` came in with a melting point of 188 to 189 °C.

Take `COc1cn(-c2cccc(-c3cccnc3)c2F)nc(-c2ccnn2-c2ccccc2)c1=O`: the melting point was in the range of 147 to 153 °C.

In the case of `CCCc1cc2ccc(CC(=O)OC)cc2n1C(C)=O`, the melting point lay within 85 to 87 °C.

Molecule `CC(C)(C)OC(=O)NNC(=O)Cc1nc2cc(F)c(N3CCN(C(=O)OC(C)(C)C)CC3)cc2n1C1CC1` had a melting point of 202 to 203 °C.

In turn, `COc1ccc2nc(C)sc2c1N` gave a melting point of 117 to 119 °C.

With `O=C1OC2(CCN(C(=O)Nc3cnc(-c4ccc(O)cc4)cn3)CC2)c2ccccc21`, the melting point fell in the range of 263 to 265 °C.

The molecule `Cn1cc(-c2cccc(C(F)(F)F)c2)c(=O)c(-c2ccccc2Br)c1` registered a melting point of 197 to 199 °C.

Take `CC(C)(C)C(O)(COc1ccccc1)c1cccnc1` (stereo not drawn): the melting point lay in the range of 89 to 90.5 °C.

`O=C1CCCc2ccc(=O)[nH]c21` had a melting point of 253 °C.

`CC1CN(S(=O)(=O)c2cc(C#N)ccc2Sc2cc(Cl)ccc2Cl)CC(C)N1` (stereo not drawn) registered a melting point of 160 to 190 °C.

As to `C/C(=N\OCCOc1ccc(C(=O)O)c(O)c1)c1ccc(C(C)(C)C)cc1`, the melting point lay in the range of 157 to 159 °C.

For the molecule `Nc1nc(=O)n(CCCCn2cncn2)cc1F`, the melting point is 197 to 200 °C.

`CCOC(=O)c1cnoc1-c1ccc2c(c1)OCO2` registered a melting point of 73 to 74 °C.

The molecule `CCCCCCCCCCCCCCCCOC(=O)c1cc(C(=O)OCCCCCCCCCCCCCCCC)cc(S(=O)O)c1` showed a melting point of 63 to 65 °C.

`Cc1nccc(NC(=O)C(CC2CCCC2)c2ccc(S(C)(=O)=O)c(C#N)c2)n1` (stereo not drawn) came in with a melting point of 89 to 94 °C.

Consider `CN1CCC(c2cc(F)ccc2F)(S(=O)(=O)c2ccc(Cl)cc2)CC1`, for which the melting point was in the range of 172 to 175 °C.

With `C=CCOC(=O)c1ccc(NC(=O)c2ccc(OC)c(C34CC5CC(CC(C5)C3)C4)c2)cc1`, the melting point was in the range of 191 to 192 °C.

With `CCc1ccc2c(c1)c(-c1ccccc1Cl)c(NC(=O)Nc1ccc(F)cc1F)c(=O)n2C`, the melting point was in the range of 192 to 195 °C.

`CCCCCCCCCCc1cc(CCCCCCCCCC)cc(N(CC(=O)O)CC(=O)O)c1` yielded a melting point of 78 to 81 °C.

In turn, `CC(C)N(C(=O)c1ccc(F)cc1)C1CCN(Cc2ccccc2)CC1` returned a melting point of 98 °C.

`O=C1C=c2cc3c(cc2CC1=O)=CCO3` yielded a melting point of 158 to 160 °C.

For the molecule `O=c1[nH]c(-c2ccc(CCCCCl)cc2)cs1`, the melting point lay within 111 to 117 °C.

In turn, `CCCCC1NC(C(=O)O)CS1` (mixture of isomers) returned a melting point of 195 °C.

As for `CC(C)c1ccccc1SC1=C(O)CC(CCCCC(=O)O)(c2ccccc2)OC1=O` (stereo not drawn), the melting point fell in the range of 145 to 146 °C.

Turning to `COC(=O)C(C)(C)c1cn2nc(Cl)c(C)cc2n1`, the melting point lay in the range of 98 to 99 °C.

Regarding `CCON=C(CC)C1=C(O)CC(c2ccc(NC(C)=O)cc2)CC1=O` (stereo not drawn), the melting point lay in the range of 135 to 136 °C.

Turning to `C=CCn1cc(C(=O)O)c(=O)c2cc(F)c(F)c(F)c21`, the melting point fell in the range of 194 to 197 °C.

`CNc1nc2ccccc2n(-c2ccc(Cl)cc2)c1=O` registered a melting point of 217 to 220 °C.

As for `COC(=O)c1ccccc1S(=O)(=O)Cc1c(O[C@H](Cn2ccnc2)c2ccccc2)ccc2c1CCCC2=O`, the melting point lay within 203 to 205 °C.

`CN(Cc1ncco1)C1CCCN(C(=O)c2ccc(Nc3nccc(Nc4ccc(F)cc4)n3)cc2)C1` (stereo not drawn) came in with a melting point of 155 to 157 °C.

As to `C=CS(=O)(=O)c1ccc(C)cc1`, the melting point stood at 66 °C.

In the case of `CSC(=O)C(=O)c1ccc2oc(-c3ccccc3)cc2c1`, the melting point fell in the range of 124 to 126 °C.

`COc1ccc(-c2nc(Sc3ccc(Cl)c(Cl)c3)[nH]c2-c2ccc(OC)cc2)cc1`: the melting point fell in the range of 113 to 115 °C.

For `CCCCc1cccc2[nH]c(C(=O)O)cc(=O)c12`, the melting point was in the range of 269 to 270 °C.

The molecule `O=C(CCBr)OCN1C(=O)NC(c2ccccc2)(c2ccccc2)C1=O` registered a melting point of 133 to 134 °C.

Consider `CC(Sc1ccc(NC(=O)NC(=O)c2ccccc2Cl)cc1)c1ccccc1` (stereo not drawn), for which the melting point turned out to be 226 °C.

As for `C[Si](C)(C)C#Cc1ccc(C(=O)OCc2ccccc2)cc1OCc1ccccc1`, the melting point was in the range of 110 to 112 °C.

On to `N#Cc1cccc2c1ccn2-c1ncc(C(F)(F)F)cc1Cl`, for which the melting point was in the range of 109 to 111 °C.

Take `CCCCCCc1cc2c(s1)-n1c(C)nnc1CN=C2c1cc(C)ccc1C`: the melting point lay in the range of 81 to 84 °C.

In turn, `Cc1nc(N2CCCC(NCc3ccc(C(F)(F)F)cc3)C2=O)sc1C(=O)NCc1ccccc1` (stereo not drawn) displayed a melting point of 39 to 40 °C.

The molecule `O=C(c1ccc(-c2ccc(Cl)cc2)o1)N1CCN(c2cccc(Br)c2)CC1` yielded a melting point of 130 °C.

Turning to `CC(C)(C)c1cc(CCCO)cc(C(C)(C)C)c1O`, the melting point lay in the range of 67.5 to 69 °C.

Molecule `COc1ccc(OC)c(S(=O)(=O)n2c(CCCC(=O)O)cc3cc(Cl)ccc32)c1` yielded a melting point of 201 to 209 °C.

As for `Nc1ccnc(N2CCC(c3ccc(S(N)(=O)=O)cc3)CC2)c1`, the melting point was in the range of 290 to 295 °C.

The molecule `Nc1nc2ccccc2c2c1nc(CO)n2CCCCNC(=O)C1CCCC1` returned a melting point of 183 to 186 °C.

In turn, `COc1ccc(CNc2nc(SC)ncc2C(=O)CP(=O)(OC)OC)cc1Cl` showed a melting point of 104 to 105 °C.

In the case of `CC(=O)Nc1ccc(-c2cc3[nH]c(=O)[nH]c3nc2C)cc1`, the melting point is > 300 °C.

`COc1ccc2oc(-c3nc(C(C)(C)C)cs3)cc2c1` had a melting point of 80 to 81 °C.

In the case of `O=C(Cc1ccc2ccccc2c1)Nc1cc(-c2ccncc2)[nH]n1`, the melting point lay in the range of 227 to 235 °C.

For the molecule `CCOC(=O)c1cn(C)c2cc(OC)ccc2c1=O`, the melting point was in the range of 198 to 200 °C.

Molecule `Cc1ccc(S(=O)(=O)Cc2c(-c3ccc(Cl)cc3Cl)nn(C)c2O)cc1` returned a melting point of 209 °C.

For `CC(C)(C)NS(=O)(=O)c1cccc(NC(=O)c2cnn3c(C4CC4)cc(-c4ccc(Cl)cc4)nc23)c1`, the melting point lay in the range of 238 to 239 °C.

`CCCCCCCCCCCCCCCC(=O)OC[C@H](O)COC(C)=O`: the melting point was in the range of 37 to 37.5 °C.

As to `CCCOc1ccc(CCC(=O)N2CCOCC2)cc1-c1nc2c(c(C)nn2CCC)c(=O)[nH]1`, the melting point was in the range of 132 to 133 °C.

Turning to `CCCCc1cn(-c2c(C)cccc2Cl)c(=O)n1Cc1ccc(-c2ccccc2-c2nnn[nH]2)cc1`, the melting point fell in the range of 163 to 164 °C.

As to `CC(C)(C)C(NC(=O)c1ccc(Cl)cc1)NC(=NC#N)NCc1ccccn1` (stereo not drawn), the melting point lay within 184 to 185 °C.

Turning to `Clc1cc(Nc2ccccc2)c(Cl)nn1`, the melting point lay within 137 to 139 °C.

`CC1Cc2cc3c(cc2C(c2ccc(Cl)cc2)=NN1c1nccs1)OCO3` (stereo not drawn) gave a melting point of 116 to 117 °C.

Take `C#CCOCCn1c(CN2CCN(C)CC2)nc2cccnc21`: the melting point was 117 °C.

`N#CCNS(=O)(=O)c1ccccc1` had a melting point of 81 to 83 °C.

The molecule `COc1ccc2c(c1OS(=O)(=O)C(F)(F)F)COCc1cc(OC)c(OC)c(OC)c1-2` came in with a melting point of 164 °C.

Regarding `COc1ccc(Cn2ccc3c(-c4ccco4)ncnc32)cc1`, the melting point was 130 to 131 °C.

Molecule `Oc1cccc2ccc(C=Cc3ccccc3)nc12` showed a melting point of 70 to 72 °C.

As to `F[C@H]1C[C@H](COc2ccccc2Cl)N(c2ncnc3[nH]cnc23)C1`, the melting point is 143 to 144 °C.

`Cc1cccc(-c2ccc(-c3cnn(Cc4ccc([N+](=O)[O-])cc4)c(=O)c3-c3ccc(F)cc3)cc2)c1S(=O)(=O)O` yielded a melting point of 183 to 184 °C.

In turn, `CCOC(=O)c1cc2c(nc1N)CCN(Cc1ccccc1)C2` came in with a melting point of 141 to 143 °C.

Molecule `CCOC(=O)c1cnn(-c2ccc(OC(F)(F)F)cc2)c1` returned a melting point of 114 to 116 °C.

`COC(=O)c1cc(C(=O)NCC(=O)O)cc([N+](=O)[O-])c1` returned a melting point of 142 to 143 °C.

Turning to `Cn1cc(C#N)c([N+](=O)[O-])n1`, the melting point fell in the range of 85 to 87 °C.

With `O=C(Cn1ccnc1)CS(=O)(=O)c1ccccc1`, the melting point lay within 137 to 140 °C.

The molecule `COc1nc(C(F)(F)F)cc(=O)n1-c1cc(OC(C)C)c(Br)cc1F` came in with a melting point of 137 °C.

Molecule `CCOc1ccccc1N1CCN(Cc2nc3ccccc3[nH]2)CC1` returned a melting point of 95 to 100 °C.

As to `O=C1c2ccc3c4cccc5cccc(c6ccc(c2c36)C(=O)N1CCCCCO)c54`, the melting point was in the range of 274 to 276 °C.

Take `O=C(O)c1ccc(NCCOc2cccc3ccccc23)cc1`: the melting point was 193 to 194 °C.

`CCCn1c(=O)n(-c2ccc3c(c2)OCO3)c2ncc(N)cc21` had a melting point of 177 to 178 °C.

In turn, `CC(C)C[C@H](NC(=O)c1ccccc1)C(=O)N[C@@H](C(C)C)[C@@H](O)c1c(-c2ccccc2)c1=O` yielded a melting point of 150 to 154 °C.

In turn, `CN(C)n1cc(C(=O)NCc2ccc(Cl)cc2)c(=O)c2cc(C#CCO)ccc21` displayed a melting point of 210 to 214 °C.

Take `COc1cc(COc2nn(CCO)cc2CO)ccc1OCc1nc(-c2ccco2)oc1C`: the melting point is 120 to 122 °C.

`CCCC(=O)c1cnc2c(OC)cccc2c1Nc1cccc(CO)c1C`: the melting point fell in the range of 186 to 188 °C.

Turning to `CCCCCCCCCCCCCCOCC(C)(O)CNCCO` (stereo not drawn), the melting point fell in the range of 49.1 to 50.2 °C.

As to `COc1ccc(N2CCN(c3c(C)c(C)c4c(c3C)C(c3cccnc3)C(C)(C)O4)CC2)cc1` (stereo not drawn), the melting point was 159 to 161 °C.

The molecule `CC(=O)SC(CC(=O)c1ccc(Cl)cc1Cl)C(=O)O` (stereo not drawn) displayed a melting point of 73 to 74.5 °C.

`Cc1nc(N)c2ncn(CCOc3ccccc3)c2c1C` came in with a melting point of 197 to 199 °C.

`CCOc1n[nH]c(=O)n1CC`: the melting point was determined as 115 °C.

Regarding `O=C(Cn1nc(-c2ccccc2O)nc1-c1ccccc1O)NC(CO)CO`, the melting point lay in the range of 212 to 214 °C.

In turn, `COc1cccc2c1C[C@H]1C[C@@H](CN3CCC(NC(=O)C(c4ccccc4)c4ccccc4)CC3)CN(C)[C@@H]1C2` registered a melting point of 219 to 222 °C.

Consider `CCOc1cc(OCC)c2c(c1)S(=O)(=O)N(COc1cc(C(F)(F)F)nn1-c1ccccc1)C2=O`, for which the melting point is 159 to 160 °C.

As to `CCOC(=O)c1coc2cc(NS(C)(=O)=O)c(Oc3ccccc3)cc2c1=O`, the melting point was in the range of 167 to 168 °C.
